Source: patent US11518763B2 (SCOHIA PHARMA, INC., priority 2018, dated 2022)
Like-named read-outs stand apart in the source and are kept apart here.

Columns and labels:
[1] = amide bond, DMF
[2] = molecular target: T1, binding between NRF2 and KEAP1 (biotinylated human KEAP1 protein (Kelch domain), TAMRA-labeled NRF2 peptide) (Homo sapiens, UniProt Q14145); test: Measurement of activity of inhibiting NRF2 binding (NRF2-KEAP1 TR-FRET); conditions: inhibition rate relative to control at 100 nM test compound; TR-FRET; 60 min at room temperature; read-out: NRF2 binding inhibitory activity (at 100 nM)
T1 construct: biotinylated human KEAP1 protein (Kelch domain); biotin (biotinylated)

[3] = system: Nqo1 mRNA; test: Expression of NRF2-downstream gene Nqo1 mRNA in rat kidney and liver after oral administration; type: in vivo; conditions: 17 h, Kidney, male SD rats, 3 mg/kg oral, about 17 hours after administration, read-out: Nqo1 mRNA expression (fold change vs vehicle)
Protocol: Test Example 2: Activity of Compound on Expression of NRF2-Downstream Gene in Rat Kidney and Liver
For the NRF2-downstream gene, Nqol mRNA was examined in regard to the expression level in kidney. Compounds were prepared into 0.5% methylcellulose (MC, METOLOSE, Shin-Etsu Chemical Co., Ltd.) suspensions, and were orally administered to male SD rats (CLEA Japan, Inc.) in a dose of 5 mL/kg. About 17 hours after the administration, the rats were euthanized under anesthesia, and their kidneys and livers were collected. By using an extraction kit, QIAsymphony RNA kit (QIAGEN, catalog number 931636) or RNeasy 96 Kit (QIAGEN, catalog number 74182), total RNA was extracted. From the total RNA thus obtained, cDNA was produced by using a cDNA synthesis kit, Superscript IV VIVO Master Mix (Thermo Fisher Scientific, catalog number 11754-250). By using the cDNA thus obtained with Taqman Fast Advanced Master Mix (Thermo Fisher Scientific, catalog number 4444557) or Platinum Quantitative PCR SuperMix (Thermo Fisher Scientific, catalog number 11743-500), and primers and a probe, the sequences of SEQ ID NO:1. SEQ ID NO:2, and SEQ ID NO: 3, which are shown in Table 4, real-time quantitative PCR was conducted with 7900HT Fast Real-Time PCR Systems or ViiA7 Fast Real-Time PCR Systems (Applied Biosystems). The expression level of Nqol mRNA in each organ of the rat to which the vehicle, 0.5% MC solution, was administered is defined as 1, and the variation is shown in Table 5.

T1 sequence (Q14145 321-609 limits assumed): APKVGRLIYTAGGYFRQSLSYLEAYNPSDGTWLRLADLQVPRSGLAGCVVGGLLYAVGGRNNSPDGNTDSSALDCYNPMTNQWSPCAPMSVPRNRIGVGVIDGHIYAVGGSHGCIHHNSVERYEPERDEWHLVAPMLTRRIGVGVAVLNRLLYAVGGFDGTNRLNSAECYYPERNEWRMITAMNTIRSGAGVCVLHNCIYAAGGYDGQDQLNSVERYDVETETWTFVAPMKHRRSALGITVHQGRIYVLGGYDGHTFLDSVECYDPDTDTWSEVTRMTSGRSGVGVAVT

Row | inhibition at 0.1 µM [2] [%] | Compound | fold induction at 3 mg/kg [3] | also measured
1 | – | CCOC(=O)CC1c2ccc3c(c2)CN(CC3)C(=O)c2ccc(cc2)COCCCn2nnc3c(C)c1ccc32 (stereo not shown) | – | ring closure, yield of all isomers ([1]; from CCOC(=O)CC(c1ccc2c(c1)CN(C(=O)OC(C)(C)C)CC2)c1ccc2c(nnn2CCCOCc2ccc(C(=O)OC(C)(C)C)cc2)c1C, HATU, 23.0 mM, 25.0 °C, 3.0 h, 2 steps): 67.7%
2 | – | COC(=O)C(C)(C)C1c2ccc3c(c2)CN(CC3)C(=O)c2ccc(cc2)COCCCn2nnc3c(C)c1ccc32 (stereo not shown) | – | ring closure, yield of all isomers ([1]; from COC(=O)C(C)(C)C(c1ccc2c(c1)CNCC2)c1ccc2c(nnn2CCCOCc2ccc(C(=O)O)cc2)c1C, HATU, 18.6 mM, 25.0 °C, 4.0 h): 20.7%
3 | – | COC(=O)C(C)(C)C1c2ccc3c(c2)CN(CC3)C(=O)c2c(Cl)cc(cc2Cl)OCCCCn2nnc3c(C)c1ccc32 (stereo not shown) | – | ring closure, yield of all isomers ([1]; from COC(=O)C(C)(C)C(c1ccc2c(c1)CNCC2)c1ccc2c(nnn2CCCCOc2cc(Cl)c(C(=O)O)c(Cl)c2)c1C, HATU/DIPEA, 15.2 mM, 25.0 °C, 4.0 h): 47.5%
4 | 100 | Cc1c2ccc3c1nnn3CCCOCc1ccc(cc1)C(=O)N1CCc3ccc(cc3C1)C2C(C)(C)C(=O)O (stereo not shown) [Example 55, 2-methyl-2-[32-methyl-20-oxo-14-oxa-8,9,10,21-tetrazahexacyclo[19.5.3.2^16,19.1^3,7.0^6,10.0^24,28]dotriaconta-1(27),3(32),4,6,8,16,18,24(28),25,30-decaen-2-yl]propanoic acid] | 6.3 | –
5 | 100 | CCc1cc2ccc1C(=O)N1CCc3ccc(cc3C1)C(CC(=O)O)c1ccc3c(nnn3CCCCC2)c1C (racemic) [Example 3, [18-Ethyl-32-methyl-20-oxo-8,9,10,21-tetraazahexacyclo[19.5.3.2^16,19.1^3,7.0^6,10.0^24,28]dotriaconta-1(26),3(32),4,6,8,16,18,24,27,30-decaen-2-yl]acetic acid] | 4.7 | –
6 | 100 | Cc1c2ccc3c1nnn3CCCCCc1ccc(c(F)c1)C(=O)N1CCc3ccc(cc3C1)C2CC(=O)O (racemic) [Example 10, [18-Fluoro-32-methyl-20-oxo-8,9,10,21-tetraazahexacyclo[19.5.3.2^16,19.1^3,7.0^6,10.0^24,28]dotriaconta-1(26),3(32),4,6,8,16,18,24,27,30-decaen-2-yl]acetic acid] | 5.9 | –
7 | 100 | Cc1c2ccc3c1nnn3CCCCCc1ccc(c3c1OC(C)(C)C3)C(=O)N1CCc3ccc(cc3C1)C2CC(=O)O (racemic) [Example 5, [6,6,33-Trimethyl-2-oxo-7-oxa-1,15,16,17-tetraazaheptacyclo[22.5.3.2^3,9.1^18,22.0^4,8.0^15,19.0^27,31]pentatriaconta-3,8,16,18(33),19,21,24,26,31,34-decaen-23-yl]acetic acid] | 3.3 | –
8 | 100 | Cc1c2ccc3c1nnn3CCCCOc1cc(Cl)c(c(Cl)c1)C(=O)N1CCc3ccc(cc3C1)C2C(C)(C)C(=O)O (stereo not shown) [Example 65, 2-[18,30-dichloro-32-methyl-20-oxo-15-oxa-8,9,10,21-tetrazahexacyclo[19.5.3.2^16,19.1^3,7.0^6,10.0^24,28]dotriaconta-1(27),3(32),4,6,8,16(31),17,19(30),24(28),25-decaen-2-yl]-2-methylpropanoic acid] | 3.6 | –
9 | 100 | Cc1c2ccc3c1nnn3CCCCCc1ccc(c(Cl)c1)C(=O)N1CCc3ccc(cc3C1)C2CC(=O)O (racemic) [Example 9, [18-Chloro-32-methyl-20-oxo-8,9,10,21-tetraazahexacyclo[19.5.3.2^16,19.1^3,7.0^6,10.0^24,28]dotriaconta-1(26),3(32),4,6,8,16,18,24,27,30-decaen-2-yl]acetic acid] | 5.5 | –
10 | – | COC(=O)C(C)(C)C1c2ccc3c(c2)CN(CC3)C(=O)c2ccc(cc2)CCCCCn2nnc3c(C)c1ccc32 (stereo not shown) | – | ring closure, yield of all isomers ([1]; from COC(=O)C(C)(C)C(c1ccc2c(c1)CNCC2)c1ccc2c(nnn2CCCCCc2ccc(C(=O)O)cc2)c1C, HATU, 17.6 mM, 30.0 °C, 19.0 h): 12.4%
11 | – | COC(=O)C(C)(C)C1c2ccc3c(c2)CN(CC3)C(=O)c2c(C)cc(cc2C)COCCCn2nnc3c(C)c1ccc32 (stereo not shown) | – | ring closure, yield of all isomers ([1]; from COC(=O)C(C)(C)C(c1ccc2c(c1)CNCC2)c1ccc2c(nnn2CCCOCc2cc(C)c(C(=O)O)c(C)c2)c1C, HATU, 30.4 mM, 25.0 °C, 4.0 h): 29.6%
12 | 29 | CCOC(=O)CC1c2ccc3c(c2)CN(CC3)C(=O)c2ccc(cc2)CCCCCn2nnc3c(C)c1ccc32 (stereo not shown) [Example 37, Ethyl [32-methyl-20-oxo-8,9,10,21-tetraazahexacyclo[19.5.3.2^16,19.1^3,7.0^6,10.0^24,28]dotriaconta-1(26),3(32),4,6,8,16,18,24,27,30-decaen-2-yl]acetate] | – | ring closure, yield of all isomers ([1]; from CCOC(=O)CC(c1ccc2c(c1)CN(C(=O)OC(C)(C)C)CC2)c1ccc2c(nnn2CCCCCc2ccc(C(=O)OC(C)(C)C)cc2)c1C, HATU, 51.2 mM, 25.0 °C, 4.0 h, 2 steps): 52.4%
